In patent US10179929B2, “Water-soluble activatable molecular probes, intermediates for the synthesis thereof and associated detection methods” (ECOLE NORMALE SUPERIEURE DE LYON, priority 2014, dated 2019):

Experiment: Evaluation of hydrosolubility: presence or absence of precipitate in buffered solutions
Details: for hydrosolubility (presence or absence of precipitate): diluted from DMSO stock solution
Protocol: The hydrosolubility of the compounds was evaluated as a function of the presence or absence of precipitate in buffered solutions of the compounds in question at different concentrations.
These stock solutions were then diluted in a commercial PBS buffer in order to obtain a range of final concentrations between 1 mM and 50 μM. A compound was declared to be insoluble if a precipitate appeared and persisted after dilution.

| SMILES | hydrosolubility (presence or absence of precipitate) (50 μM in PBS buffer) | hydrosolubility (presence or absence of precipitate) (100 μM in PBS buffer) | hydrosolubility (presence or absence of precipitate) (250 μM in PBS buffer) | hydrosolubility (presence or absence of precipitate) (500 μM in PBS buffer) | hydrosolubility (presence or absence of precipitate) (1 mM in PBS buffer) | appearance of stock solution in DMSO (100 mM in DMSO) |
| --- | --- | --- | --- | --- | --- | --- |
| CCCCCCCC(=O)OCC1CCCCN1C(=O)Oc1ccc2c(C)cc(=O)oc2c1 (centres unmarked) [Compound 27, 4-methyl-2-oxo-2H-chromen-7-yl 2-((octanoyloxy)methyl)piperidine-1-carboxylate, reference compound] | soluble | soluble | insoluble | insoluble | insoluble | – |
| Cc1cc(=O)oc2cc(NC(=O)[C@@H](N)CC(C)C)ccc12 [AMC-Leu, reference compound] | – | – | – | – | – | cloudy solution |
| CCCCCCCC(=O)OCC1CNCCN1C(=O)Oc1ccc2c(C)cc(=O)oc2c1 (centres unmarked) [Compound 21, 4-methyl-2-oxo-2H-chromen-7-yl 2-((octanoyloxy)methyl)piperazine-1-carboxylate] | soluble | soluble | soluble | insoluble | insoluble | – |
| Cc1cc(=O)oc2cc(OC(=O)N3CCNCC3CNC(=O)Cc3ccccc3)ccc12 (centres unmarked) [Compound 12, 4-methyl-2-oxo-2H-chromen-7-yl 2-((2-phenylacetamido)methyl)piperazine-1-carboxylate] | soluble | soluble | soluble | soluble | soluble | – |
| CCCCCCCC(=O)OCC1CN(CCCCS(=O)(=O)O)CCN1C(=O)Oc1ccc2c(C)cc(=O)oc2c1 (centres unmarked) [Compound 22, 4-(4-(((4-methyl-2-oxo-2H-chromen-7-yl)oxy)carbonyl)-3-((octanoyloxy)methyl)piperazin-1-yl)butane-1-sulfonic Acid] | soluble | soluble | soluble | soluble | soluble | – |
| COCCOCCOCCn1cc(CCC(=O)N2CCN(C(=O)Oc3ccc([N+](=O)[O-])cc3)C(CNC(=O)Cc3ccccc3)C2)nn1 (centres unmarked) [Compound 36, 4-nitrophenyl 4-(3-(1-(2-(2-(2-methoxyethoxy)ethoxy)ethyl)-1H-1,2,3-triazol-4-yl)propanoyl)-2-((2-phenylacetamido)methyl)piperazine-1-carboxylate] | soluble | soluble | soluble | soluble | soluble | – |
| COCCOCCOCCn1cc(CCC(=O)N2CCN(C(=O)Oc3ccc(Cl)cc3-c3nc4ccc(Cl)cc4c(=O)[nH]3)C(CNC(=O)Cc3ccccc3)C2)nn1 (centres unmarked) [Compound 39, 4-chloro-2-(6-chloro-4-oxo-3,4-dihydroquinazolin-2-yl)phenyl 4-(3-(1-(2-(2-(2-methoxyethoxy)ethoxy)ethyl)-1H-1,2,3-triazol-4-yl)propanoyl)-2-((2-phenylacetamido)methyl)piperazine-1-carboxylate] | soluble | soluble | soluble | insoluble | insoluble | – |
| Cc1cc(=O)oc2cc(OC(=O)N3CCCCC3CNC(=O)Cc3ccccc3)ccc12 (centres unmarked) [Compound 15, 4-methyl-2-oxo-2H-chromen-7-yl 2-((2-phenylacetamido)methyl)piperidine-1-carboxylate, reference compound] | insoluble | insoluble | insoluble | insoluble | insoluble | – |
| COCCOCCOCCn1cc(CCC(=O)N2CCN(C(=O)Oc3ccc4c(C)cc(=O)oc4c3)C(CNC(=O)Cc3ccccc3)C2)nn1 (centres unmarked) [Compound 31, 4-methyl-2-oxo-2H-chromen-7-yl 4-(3-(1-(2-(2-(2-methoxyethoxy)ethoxy)ethyl)-1H-1,2,3-triazol-4-yl)propanoyl)-2-((2-phenylacetamido)methyl)piperazine-1-carboxylate] | soluble | soluble | soluble | soluble | soluble | – |
